Source: patent US7998940B2, “Aptamers to von Willebrand factor and their use as thrombotic disease therapeutics” (Archemix Corp., priority 2004, dated 2011)
Oligonucleotides are written 5' to 3', each unit as a sugar letter and its base; * is a phosphorothioate linkage, no mark a phosphodiester; rarer units and linkages stand in square brackets, end groups in braces. Plain capitals give the bases only. [invdT] = inverted (3'-3') thymidine; d = 2'-deoxy (DNA); m = 2'-O-methyl

Test system: full length human vWF (SEQ ID NO 7)
Test: dot blot KD determination and extent of binding, full length human vWF;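 also: dot blot binding of aptamers to full length human vWF across a protein titration, incubated 30 minutes at room temperature in 1x DPBS with BSA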
Details: for % binding @ 100 nM vWF / Kd: Phase 1 modification; for % binding @ 100 nM vWF: extent of aptamer binding at 100 nM full length human vWF; for Kd: full length human vWF, 8 point protein titration, read-out: KD

ARC1115: ARC1029 with PEG spacer replaced with a short oligonucleotide sequence, dTdTdC (DNA GGCGTGCAGTGCCTTCGGCCGTGCGGTGCCTCCGTCACGCC; unmodified DNA)
% binding @ 100 nM vWF: 36%
Kd (dot blot): 2 nM
binding to human vWF (in words, dot blot): shown to bind

ARC1194: ARC1172 with one residue replaced by 2'-O methyl residue (DNA mGdGdCdGdTdGdCdAdGdTdGdCdCdTdTdCdGdGdCdCdGdTdGdCdGdGdTdGdCdCdTdCdCdGdTdCdAdCdGdCdC[invdT]; aptamer)
% binding @ 100 nM vWF: 46%
Kd (dot blot): 3 nM

ARC1195: ARC1172 with one residue replaced by 2'-O methyl residue (DNA dGmGdCdGdTdGdCdAdGdTdGdCdCdTdTdCdGdGdCdCdGdTdGdCdGdGdTdGdCdCdTdCdCdGdTdCdAdCdGdCdC[invdT]; aptamer)
% binding @ 100 nM vWF: 55%
Kd (dot blot): 1 nM

ARC1196: ARC1172 with one residue replaced by 2'-O methyl residue (DNA dGdGmCdGdTdGdCdAdGdTdGdCdCdTdTdCdGdGdCdCdGdTdGdCdGdGdTdGdCdCdTdCdCdGdTdCdAdCdGdCdC[invdT]; aptamer)
% binding @ 100 nM vWF: 46%
Kd (dot blot): 2 nM

ARC1197: ARC1172 with one residue replaced by 2'-O methyl residue (DNA dGdGdCmGdTdGdCdAdGdTdGdCdCdTdTdCdGdGdCdCdGdTdGdCdGdGdTdGdCdCdTdCdCdGdTdCdAdCdGdCdC[invdT]; aptamer)
% binding @ 100 nM vWF: 46%
Kd (dot blot): 2 nM

ARC1198: ARC1172 with one residue replaced by 2'-O methyl residue (DNA dGdGdCdGmUdGdCdAdGdTdGdCdCdTdTdCdGdGdCdCdGdTdGdCdGdGdTdGdCdCdTdCdCdGdTdCdAdCdGdCdC[invdT]; aptamer)
% binding @ 100 nM vWF: 50%
Kd (dot blot): 0.9 nM

ARC1199: ARC1172 with one residue replaced by 2'-O methyl residue (DNA dGdGdCdGdTmGdCdAdGdTdGdCdCdTdTdCdGdGdCdCdGdTdGdCdGdGdTdGdCdCdTdCdCdGdTdCdAdCdGdCdC[invdT]; aptamer)
% binding @ 100 nM vWF: 28%
Kd (dot blot): 19 nM

ARC1200: ARC1172 with one residue replaced by 2'-O methyl residue (DNA dGdGdCdGdTdGmCdAdGdTdGdCdCdTdTdCdGdGdCdCdGdTdGdCdGdGdTdGdCdCdTdCdCdGdTdCdAdCdGdCdC[invdT]; aptamer)
% binding @ 100 nM vWF: 25%
Kd (dot blot): 5 nM

ARC1201: ARC1172 with one residue replaced by 2'-O methyl residue (DNA dGdGdCdGdTdGdCmAdGdTdGdCdCdTdTdCdGdGdCdCdGdTdGdCdGdGdTdGdCdCdTdCdCdGdTdCdAdCdGdCdC[invdT]; aptamer)
% binding @ 100 nM vWF: 6%
Kd (dot blot): 0.9 nM

ARC1202: ARC1172 with one residue replaced by 2'-O methyl residue (DNA dGdGdCdGdTdGdCdAmGdTdGdCdCdTdTdCdGdGdCdCdGdTdGdCdGdGdTdGdCdCdTdCdCdGdTdCdAdCdGdCdC[invdT]; aptamer)
% binding @ 100 nM vWF: 56%
Kd (dot blot): 0.4 nM

ARC1203: ARC1172 with one residue replaced by 2'-O methyl residue (DNA dGdGdCdGdTdGdCdAdGmUdGdCdCdTdTdCdGdGdCdCdGdTdGdCdGdGdTdGdCdCdTdCdCdGdTdCdAdCdGdCdC[invdT]; aptamer)
% binding @ 100 nM vWF: 40%
Kd (dot blot): 3 nM

ARC1204: ARC1172 with one residue replaced by 2'-O methyl residue (DNA dGdGdCdGdTdGdCdAdGdTmGdCdCdTdTdCdGdGdCdCdGdTdGdCdGdGdTdGdCdCdTdCdCdGdTdCdAdCdGdCdC[invdT]; aptamer)
% binding @ 100 nM vWF: 45%
Kd (dot blot): 2 nM

ARC1205: ARC1172 with one residue replaced by 2'-O methyl residue (DNA dGdGdCdGdTdGdCdAdGdTdGmCdCdTdTdCdGdGdCdCdGdTdGdCdGdGdTdGdCdCdTdCdCdGdTdCdAdCdGdCdC[invdT]; aptamer)
% binding @ 100 nM vWF: 50%
Kd (dot blot): 1 nM

ARC1206: ARC1172 with one residue replaced by 2'-O methyl residue (DNA dGdGdCdGdTdGdCdAdGdTdGdCmCdTdTdCdGdGdCdCdGdTdGdCdGdGdTdGdCdCdTdCdCdGdTdCdAdCdGdCdC[invdT]; aptamer)
% binding @ 100 nM vWF: 50%
Kd (dot blot): 2 nM

ARC1207: ARC1172 with one residue replaced by 2'-O methyl residue (DNA dGdGdCdGdTdGdCdAdGdTdGdCdCmUdTdCdGdGdCdCdGdTdGdCdGdGdTdGdCdCdTdCdCdGdTdCdAdCdGdCdC[invdT]; aptamer)
% binding @ 100 nM vWF: 54%
Kd (dot blot): 2 nM

ARC1208: ARC1172 with one residue replaced by 2'-O methyl residue (DNA dGdGdCdGdTdGdCdAdGdTdGdCdCdTmUdCdGdGdCdCdGdTdGdCdGdGdTdGdCdCdTdCdCdGdTdCdAdCdGdCdC[invdT]; aptamer)
% binding @ 100 nM vWF: 45%
Kd (dot blot): 2 nM

ARC1209: ARC1172 with one residue replaced by 2'-O methyl residue (DNA dGdGdCdGdTdGdCdAdGdTdGdCdCdTdTmCdGdGdCdCdGdTdGdCdGdGdTdGdCdCdTdCdCdGdTdCdAdCdGdCdC[invdT]; aptamer)
% binding @ 100 nM vWF: 44%
Kd (dot blot): 2 nM

ARC1210: ARC1172 with one residue replaced by 2'-O methyl residue (DNA dGdGdCdGdTdGdCdAdGdTdGdCdCdTdTdCmGdGdCdCdGdTdGdCdGdGdTdGdCdCdTdCdCdGdTdCdAdCdGdCdC[invdT]; aptamer)
% binding @ 100 nM vWF: 49%
Kd (dot blot): 2 nM

ARC1211: ARC1172 with one residue replaced by 2'-O methyl residue (DNA dGdGdCdGdTdGdCdAdGdTdGdCdCdTdTdCdGmGdCdCdGdTdGdCdGdGdTdGdCdCdTdCdCdGdTdCdAdCdGdCdC[invdT]; aptamer)
% binding @ 100 nM vWF: 47%
Kd (dot blot): 2 nM

ARC1212: ARC1172 with one residue replaced by 2'-O methyl residue (DNA dGdGdCdGdTdGdCdAdGdTdGdCdCdTdTdCdGdGmCdCdGdTdGdCdGdGdTdGdCdCdTdCdCdGdTdCdAdCdGdCdC[invdT]; aptamer)
% binding @ 100 nM vWF: 49%
Kd (dot blot): 2 nM

ARC1213: ARC1172 with one residue replaced by 2'-O methyl residue (DNA dGdGdCdGdTdGdCdAdGdTdGdCdCdTdTdCdGdGdCmCdGdTdGdCdGdGdTdGdCdCdTdCdCdGdTdCdAdCdGdCdC[invdT]; aptamer)
% binding @ 100 nM vWF: 43%
Kd (dot blot): 6 nM

ARC1214: ARC1172 with one residue replaced by 2'-O methyl residue (DNA dGdGdCdGdTdGdCdAdGdTdGdCdCdTdTdCdGdGdCdCmGdTdGdCdGdGdTdGdCdCdTdCdCdGdTdCdAdCdGdCdC[invdT]; aptamer)
% binding @ 100 nM vWF: 39%
Kd (dot blot): 3 nM

ARC1215: ARC1172 with one residue replaced by 2'-O methyl residue (DNA dGdGdCdGdTdGdCdAdGdTdGdCdCdTdTdCdGdGdCdCdGmUdGdCdGdGdTdGdCdCdTdCdCdGdTdCdAdCdGdCdC[invdT]; aptamer)
% binding @ 100 nM vWF: 2%
Kd (dot blot): 3 nM
